Test results taken from patent US10228380B2, “Methods for targeting membrane steroid transporters” (priority 2018, dated 2019).

Experiments:
[1] = target: T1, EcR (Drosophila melanogaster, UniProt P34021); assay: luciferase reporter assay in S2 culture cells with or without EcI RNAi; type: cell-based, D. melanogaster; conditions: for effect of EcI RNAi treatment on the cells' response as measured by the luciferase assay: S2 culture cells, varying concentrations, 24 hours, EcI RNAi vs control cells without RNAi
T1 construct: endogenous in cells; host or cells: Drosophila S2 culture cells
T1 sequence (P34021 1-878): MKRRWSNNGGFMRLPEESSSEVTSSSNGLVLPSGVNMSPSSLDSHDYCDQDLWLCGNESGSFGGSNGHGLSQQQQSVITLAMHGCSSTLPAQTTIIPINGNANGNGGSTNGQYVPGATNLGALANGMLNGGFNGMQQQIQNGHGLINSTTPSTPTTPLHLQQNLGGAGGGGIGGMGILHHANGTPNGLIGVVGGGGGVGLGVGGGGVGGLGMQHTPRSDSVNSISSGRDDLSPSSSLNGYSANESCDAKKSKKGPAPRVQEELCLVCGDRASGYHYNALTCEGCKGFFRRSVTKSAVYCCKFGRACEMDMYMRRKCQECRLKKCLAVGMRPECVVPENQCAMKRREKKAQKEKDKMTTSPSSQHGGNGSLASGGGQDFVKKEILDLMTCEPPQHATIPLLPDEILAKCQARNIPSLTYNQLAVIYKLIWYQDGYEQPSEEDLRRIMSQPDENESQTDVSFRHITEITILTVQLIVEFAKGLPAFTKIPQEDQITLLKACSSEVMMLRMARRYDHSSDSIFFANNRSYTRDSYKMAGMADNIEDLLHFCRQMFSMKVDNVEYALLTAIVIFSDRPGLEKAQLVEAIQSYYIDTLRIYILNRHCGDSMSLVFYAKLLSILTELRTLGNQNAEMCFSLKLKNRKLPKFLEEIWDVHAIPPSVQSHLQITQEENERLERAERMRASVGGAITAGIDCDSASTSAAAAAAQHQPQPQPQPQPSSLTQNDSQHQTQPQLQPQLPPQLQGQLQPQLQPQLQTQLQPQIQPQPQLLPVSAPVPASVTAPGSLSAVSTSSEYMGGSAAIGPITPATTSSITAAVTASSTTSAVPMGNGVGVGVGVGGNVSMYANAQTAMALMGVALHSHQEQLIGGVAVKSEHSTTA
T1 sequence (P20153 1-508 partner): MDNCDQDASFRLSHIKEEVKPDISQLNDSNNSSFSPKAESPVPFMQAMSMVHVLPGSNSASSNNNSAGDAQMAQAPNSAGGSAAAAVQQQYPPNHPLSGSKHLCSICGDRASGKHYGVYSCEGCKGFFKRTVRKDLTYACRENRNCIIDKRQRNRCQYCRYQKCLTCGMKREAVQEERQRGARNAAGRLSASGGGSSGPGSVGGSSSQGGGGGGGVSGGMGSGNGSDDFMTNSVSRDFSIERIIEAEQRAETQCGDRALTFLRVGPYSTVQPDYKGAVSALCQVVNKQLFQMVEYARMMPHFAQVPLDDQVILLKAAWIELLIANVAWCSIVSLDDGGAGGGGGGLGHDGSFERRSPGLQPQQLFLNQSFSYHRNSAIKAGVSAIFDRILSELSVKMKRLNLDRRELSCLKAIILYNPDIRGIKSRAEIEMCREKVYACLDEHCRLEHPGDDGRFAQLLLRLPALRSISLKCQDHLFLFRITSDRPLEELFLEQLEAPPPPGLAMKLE
Method: FIG. 3 is a graph of the fold change of D. melanogaster EcR response after incubation of S2 culture cells for 24 hours in varying concentrations of 20E (left graph) or chromafenozide (CF; middle graph), as measured by luciferase reporter assay. The right graph is a time-course analysis of EcR-mediated luciferase activity in S2 culture cells treated with 10^−7M of 20E. In each graph, the control data is the solid top line, and the dashed bottom line is data of cells treated with EcI RNAi. Each point represents mean±SD; * indicates p<0.05 from Student's t-test compared to control; ** indicates p<0.01 from Student's t-test compared to control.
FIG. 5A depicts a schematic of a luciferase reporter assay in a cell derived from an arthropod cell line, for determining transport of 20E by the membrane steroid hormone transporter encoded by ecdysone importer (EcI).
As described above, in some embodiments, the transcriptional activity of a steroid hormone nuclear receptor is used to evaluate the transport of a steroid hormone across the cell membrane of an initial cell, or a comparative cell. In some variations, the luciferase reporter assay is used to measure the transcriptional activity of the steroid hormone nuclear receptor. For example, with reference to FIG. 5A and FIG. 5B, depicted are schemes showing the use of a luciferase reporter assay in an S2 cell (FIG. 5A) or in a HEK cell (FIG. 5B) to evaluate the transcriptional activity of the nuclear receptor encoded by the gene ecdysone receptor (EcR).
S2 culture cells treated with EcI RNAi were incubated with varying concentrations of 20E or with chromafenozide (CF) for 24 hours, and their response was monitored using a luciferase reporter assay. The relative response of the treated cells was compared to control cells, which were incubated with 20E or CF but not treated with RNAi. […] CF is a non-steroidal EcR agonist, and is expected to enter the cells through an unknown transporter distinct from EcI.

[2] = target: T2, EcI and EcR (Drosophila melanogaster, UniProt P34021); assay: luciferase reporter assay in HEK culture cells transfected with EcR or with EcI and EcR; type: cell-based, D. melanogaster; conditions: varying concentrations, 24 hours
T2 construct: expressed in transfected cells; host or cells: human HEK cells
T2 sequence (P34021 1-878): T1 sequence (P34021 1-878)
Method: FIG. 4 is a relative luciferase reporter activity in HEK culture cells treated for 24 h with 20E. Response of the cells transfected with EcR is the solid bottom line; cells transfected with EcR and EcI is the dashed top line. Each point represents mean±SEM; ** indicates p<0.01 from Student's t-test compared to control.
FIG. 5B depicts a schematic of a luciferase reporter assay in a cell derived from a mammalian cell line, for determining transport of 20E by the membrane steroid hormone transporter encoded by ecdysone importer (EcI).
As described above, in some embodiments, the transcriptional activity of a steroid hormone nuclear receptor is used to evaluate the transport of a steroid hormone across the cell membrane of an initial cell, or a comparative cell. In some variations, the luciferase reporter assay is used to measure the transcriptional activity of the steroid hormone nuclear receptor. […]
Human HEK cells were transfected with EcI and EcR, and their response to incubation with varying concentrations of 20E for 24 hours was evaluated using the luciferase reporter assay. Control HEK cells that were transfected only with EcR were also evaluated.

Compound | effect of EcI RNAi treatment on the cells' response over time (time-course of luciferase activity) ([1]; S2 cells treated with 10^−7 M, with or without RNAi) | effect of EcI RNAi treatment on the cells' response as measured by the luciferase assay [1] | response as measured by luciferase assay ([2]; control human HEK cells transfected only with EcR) | response as measured by luciferase assay ([2]; human HEK cells transfected with both EcI and EcR)
CC(C)(O)CC[C@@H](O)[C@](C)(O)[C@H]1CC[C@@]2(O)C3=CC(=O)[C@@H]4C[C@@H](O)[C@@H](O)C[C@]4(C)[C@H]3CC[C@]12C [20E, 20-hydroxyecdysone] | significantly decreased | significantly decreased | not responsive | responsive
Cc1cc(C)cc(C(=O)N(NC(=O)c2ccc3c(c2C)CCCO3)C(C)(C)C)c1 [CF, chromafenozide] |  | less effect |  | 
